Laboratory results published in US7442398B2, “Phytase produced from Citrobacter braakii” (Republic of National Fisheries Research and Development …, priority 2003, dated 2008).

How the values were obtained:
YH-15 phytase [1] = assay: Enzyme activity of phytase according to metal ions and inhibitors; format: biochemical, Citrobacter braakii YH-15; conditions: for inhibition of enzyme activity by metal ions: concentration of 10 mM; for enzyme activity after being left with denaturant: 37° C. for 2 hours, 8 M urea or 0.0024% SDS
Excerpt: (§1) The present inventors investigated the effect of metal ions and inhibitors on the enzyme activity of phytase of the present invention.

[2] = molecular target: T1, Citrobacter braakii YH-15 phytase, wild type, SEQ. ID. No 7 (N-terminal SEQ. ID. No 2) (Citrobacter braakii, UniProt Q2VY22); assay: Substrate kinetics of purified YH-15 phytase (phosphate release from phytate); format: biochemical; conditions: substrate phytate (sodium phytate)
T1 construct: signal peptide removed
Description: (§2) The present inventors measured the activity of phytase produced by the 5 strains above (Table 1). Inorganic phosphorus quantitative method of Fiske, et al. was used for measuring the activity of phytase in culture solution and in cell precipitate. Particularly, 400 μl of substrate solution (2 mM sodium phytate in 0.1 M sodium acetate buffer, pH 5.0) was added to 100 μl of enzyme solution diluted by required dilution ratio, which was reacted at 37° C. for 30 minutes. Then, 500 μl of 5% TCA solution was added thereto, which was just left at 0° C. for 10 minutes to stop the reaction. As for a control (blank), TCA (trichloroacetic acid) solution was added to enzyme solution to inactivate the enzyme and then substrate solution was added thereto, which was left for a while. 4 ml of reagent A (1:1:1:2 ratio of 6 N H2SO4/2.5% ammonium molybdate/10% ascorbic acid/H2O) was added, followed by reaction at 37° C. for 30 minutes. Then, activities in enzyme solution and in a control were measured at 820 nm. 1 unit of the enzyme was determined to be the enzyme amount releasing 1 μmole of phosphate for 1 minute.
(§3) The enzyme activity of phytase included in each sample prepared from each purification stage of the above Example <3-2> was investigated (Table 3). Protein content was quantified by BCA protein quantification kit provided by Sigma, co. At that time, BSA (bovine serum albumin) was used as a standard protein. Specific activity of the purified phytase to phytate was 3,457 units/mg, recovery rate was 28%, and the final phytase was purified by 12,950 fold (FIG. 2).
(§4) Substrate specificity of phytase to various phosphate ester compounds was investigated.

YH-15 phytase [3] = assay: Substrate specificity of phytase; format: biochemical, Citrobacter braakii YH-15; conditions: for Relative activity (%): substrate, phytate = 100
Excerpt: as §4

[4] = test system: O=P(O)(O)O[C@H]1[C@H](OP(=O)(O)O)[C@@H](OP(=O)(O)O)[C@H](OP(=O)(O)O)[C@@H](OP(=O)(O)O)[C@H]1OP(=O)(O)O; assay: Substrate kinetics of purified YH-15 phytase (phosphate release from phytate); format: biochemical, Citrobacter braakii YH-15; conditions: other: substrate phytate (sodium phytate); pH 5.0; 37.0 °C
Description: as §2, §3, §4

[5] = molecular target: T1, Citrobacter braakii YH-15 phytase, wild type, SEQ. ID. No 7 (N-terminal SEQ. ID. No 2); assay: Enzyme activity of YH-15 phytase according to metal ions and inhibitors; format: biochemical; conditions: for effect of inhibitor on enzyme activity: concentration not given, reagents involved in disulfate bond
Description: as §2, §1

[6] = Enzyme activity of phytase according to temperature and pH; format: biochemical, Citrobacter braakii YH-15
Description: The present invention investigated an enzyme activity of phytase, according to temperature and pH, purified through chromatography using Mono S column.
When the enzyme was left at 55° C. for 10 minutes, 75% of the activity was still remained.
50% of the enzyme activity was still maintained at pH 2.5. […] But, as the protein was left under pH 3.0 for 4 hours, the enzyme activity was almost lost. From temperature and pH test with the protein, phytase of the present invention was believed to be very suitable for being used as a feed additive for monogastric animals.

proteases = assay: Effect of proteases on the enzyme activity of phytase; format: biochemical
Description: The present inventors investigated the effect of proteases on the enzyme activity of phytase. Particularly, phytase was left at 37° C. for 2 hours with pepsin and trypsin, resulting in no changes in the enzyme activity. But, as papain, elastase and pancreatin were added, 70˜85% of the enzyme activity remained.

[7] = Specific activity and kinetics of purified phytase to phytate; format: biochemical, Citrobacter braakii YH-15
Description: as §2
The enzyme activity of phytase included in each sample prepared from each purification stage of the above Example <3-2> was investigated (Table 3). Protein content was quantified by BCA protein quantification kit provided by Sigma, co. […]

## [Cl-].[Cl-].[Mg+2] [MgCl2]
YH-15 phytase [1]; metal ion or inhibitor 6 mM
  Relative activity (%): 71%

## O=P(O)(O)O[C@H]1[C@H](OP(=O)(O)O)[C@@H](OP(=O)(O)O)[C@H](OP(=O)(O)O)[C@@H](OP(=O)(O)O)[C@H]1OP(=O)(O)O [phytate, myo-inositol 1,2,3,4,5,6 hexakis dihydrogen phosphate]
[2]
  Vmax: 6,027 U/mg

## O=S(=O)([O-])[O-].[Cu+2] [CuSO4]
YH-15 phytase [1]
  inhibition of enzyme activity by metal ions: strongly inhibited
YH-15 phytase [1]; metal ion or inhibitor 6 mM
  Relative activity (%): 38%

## [Cl-].[K+] [KCl]
YH-15 phytase [1]; metal ion or inhibitor 6 mM
  Relative activity (%): 95%

## Nc1ncnc2c1ncn2[C@@H]1O[C@H](COP(=O)(O)OP(=O)(O)O)[C@@H](O)[C@H]1O [ADP]
YH-15 phytase [3]
  Relative activity (%): 1.04%

## O=C[C@@H](O)[C@@H](O)[C@H](O)[C@H](O)COP(=O)(O)O [Mannose-6-phosphate]
YH-15 phytase [3]
  Relative activity (%): 0.01%

## Citrobacter braakii YH-15 phytase, wild type, SEQ. ID. No 7 (N-terminal SEQ. ID. No 2) (Citrobacter braakii)
[4]
  Km: 460 µM
  Vmax: 6,027 U/mg

## [Ca+2].[Cl-].[Cl-] [CaCl2]
YH-15 phytase [1]; metal ion or inhibitor 6 mM
  Relative activity (%): 87%

## [Cl][Fe]([Cl])[Cl] [FeCl3]
YH-15 phytase [1]
  inhibition of enzyme activity by metal ions: strongly inhibited
YH-15 phytase [1]; metal ion or inhibitor 6 mM
  Relative activity (%): 19%

## [Cl][Mn][Cl] [MnCl2]
YH-15 phytase [1]; metal ion or inhibitor 6 mM
  Relative activity (%): 92%

## NC(N)=O [urea]
YH-15 phytase [1]
  enzyme activity after being left with denaturant: almost lost
[5]; 8 M, 37° C., 2 hours
  enzyme activity after incubation with inhibitor: almost lost

## [Cl][Cd][Cl] [CdCl2]
YH-15 phytase [1]; metal ion or inhibitor 6 mM
  Relative activity (%): 101%

## O=S(=O)([O-])[O-].[Zn+2] [ZnSO4]
YH-15 phytase [1]
  inhibition of enzyme activity by metal ions: strongly inhibited
YH-15 phytase [1]; metal ion or inhibitor 8 mM
  Relative activity (%): 33%

## O=P(O)(O)O[C@H]1O[C@H](CO)[C@@H](O)[C@H](O)[C@H]1O [Glucose-1-phosphate]
YH-15 phytase [3]
  Relative activity (%): 0.42%

## O=P(O)(O)O[C@H]1[C@H](OP(=O)(O)O)[C@@H](OP(=O)(O)O)[C@H](OP(=O)(O)O)[C@@H](OP(=O)(O)O)[C@H]1OP(=O)(O)O [Phytate, myo-inositol 1,2,3,4,5,6 hexakis dihydrogen phosphate]
YH-15 phytase [3]
  ability of phytase to decompose the substrate: strong ability to decompose
  Relative activity (%): 100%

## [Cl-].[Na+] [NaCl]
YH-15 phytase [1]; concentration of 1 M
  inhibition of enzyme activity: 50%
YH-15 phytase [1]; metal ion or inhibitor 6 mM
  Relative activity (%): 102%
YH-15 phytase [1]; metal ion or inhibitor 1000 mM
  Relative activity (%): 54%

## OCCS [2-mercaptoethanol]
[5]
  effect of inhibitor on enzyme activity: hardly affected

## O=P([O-])([O-])OP(=O)([O-])[O-].[Na+].[Na+].[Na+].[Na+] [Tetrasodium pyrophosphate]
YH-15 phytase [3]
  Relative activity (%): 5.95%

## Nc1ncnc2c1ncn2[C@@H]1O[C@H](COP(=O)(O)OP(=O)(O)OP(=O)(O)O)[C@@H](O)[C@H]1O [ATP]
YH-15 phytase [3]
  Relative activity (%): 1.86%

## O=C(CO)[C@@H](O)[C@H](O)[C@H](O)COP(=O)(O)O [Fructose-6-phosphate]
YH-15 phytase [3]
  Relative activity (%): 0.75%

## O=C[C@H](O)[C@@H](O)[C@H](O)[C@H](O)COP(=O)(O)O [Glucose-6-phosphate]
YH-15 phytase [3]
  Relative activity (%): 0.33%

## O=[N+]([O-])c1ccc(OP(=O)(O)O)cc1 [p-nitrophenyl phosphate]
YH-15 phytase [3]
  Relative activity (%): 11.27%

## OC(CS)C(O)CS (centres unmarked) [dithothreitol]
[5]
  effect of inhibitor on enzyme activity: hardly affected

## O=C(O)CN(CCN(CC(=O)O)CC(=O)O)CC(=O)O [EDTA]
[5]; read-out: Relative activity (%)
  activity at 6000 µM: 98%

## O=S(=O)([O-])[O-].[Ni+2] [NiSO4]
YH-15 phytase [1]; metal ion or inhibitor 6 mM
  Relative activity (%): 88%

## O=P(O)(O)OCC(O)CO (centres unmarked) [Glycerophosphate]
YH-15 phytase [3]
  Relative activity (%): 0.57%

## CCCCCCCCCCCCOS(=O)(=O)[O-].[Na+] [SDS]
YH-15 phytase [1]
  enzyme activity after being left with denaturant: almost lost

B1: YH-15 phytase: novel phytase enzyme of about 47 kDa produced by Citrobacter braakii YH-15, SEQ. ID. No 7 (protein)
chain: MSTFIIRLLIFSLLCGSFSIHAEEQNGMKLERVVIVSRHGVRAPTKFTPIMKDVTPDQWPQWDVPLGWLTPRGGELVSELGQYQRLWFTSKGLLNNQTCPSPGQVAVIADTDQRTRKTGEAFLAGLAPKCQIQVHYQKDEEKNDPLFNPVKMGKCSFNTLKVKNAILERAGGNIELYTQRYQSSFRTLENVLNFSQSETCKTTEKSTKCTLPEALPSEFKVTPDNVSLPGAWSLSSTLTEIFLLQEAQGMPQVAWGRITGEKEWRDLLSLHNAQFDLLQRTPEVARSRATPLLDMIDTALLTNGTTENRYGIKLPVSLLFIAGHDTNLANLSGALDLKWSLPGQPDNTPPGGELVFEKWKRTSDNTDWVQVSFVYQTLRDMRDIQPLSLEKPAGKVDLKLIACEEKNSQGMCSLKSFSRLIKEIRVPECAVTE
modifications: Citrobacter braakii YH-15; PEPTIDE (1)..(433) phytase
[6]
  pH of highest activity: 4.0
  temperature of highest activity: 50 °C
[6]; 37° C., pH 3.0-4.5, 7 days
  activity on storage at pH 3.0-4.5: very stably maintained
[6]; 37° C., pH 7.0, 7 days
  activity remained at pH 7.0: 50%
[6]; 50° C. for 1 hour
  activity after holding at 50° C.: stably maintained
[6]; left at 55° C. for 10 minutes
  activity remained after heat: 75%
[6]; pH 2.5
  enzyme activity maintained at pH 2.5: 50%
[6]; under pH 3.0 for 4 hours
  activity after being left under pH 3.0: almost lost
proteases; 37° C. for 2 hours with pepsin
  enzyme activity after pepsin: no changes
proteases; 37° C. for 2 hours with trypsin
  enzyme activity after trypsin: no changes
proteases; elastase added
  enzyme activity remained after elastase: 70˜85%
proteases; pancreatin added
  enzyme activity remained after pancreatin: 70˜85%
proteases; papain added
  enzyme activity remained after papain: 70˜85%
[7]; final purified phytase
  Specific activity of the purified phytase to phytate: 3,457 units/mg
[7]; purification stage Mono SHR 5/5 (final)
  Specific activity: 3,457 U/mg
